In US20060100226A1, “2-Thiopyrimidinones as therapeutic agents” (priority 2004, published 2006):

Biological target: T1, murine MEKK2 (mMEKK2) (Mus musculus, UniProt Q61083)
T1 sequence (Q61083 1-619): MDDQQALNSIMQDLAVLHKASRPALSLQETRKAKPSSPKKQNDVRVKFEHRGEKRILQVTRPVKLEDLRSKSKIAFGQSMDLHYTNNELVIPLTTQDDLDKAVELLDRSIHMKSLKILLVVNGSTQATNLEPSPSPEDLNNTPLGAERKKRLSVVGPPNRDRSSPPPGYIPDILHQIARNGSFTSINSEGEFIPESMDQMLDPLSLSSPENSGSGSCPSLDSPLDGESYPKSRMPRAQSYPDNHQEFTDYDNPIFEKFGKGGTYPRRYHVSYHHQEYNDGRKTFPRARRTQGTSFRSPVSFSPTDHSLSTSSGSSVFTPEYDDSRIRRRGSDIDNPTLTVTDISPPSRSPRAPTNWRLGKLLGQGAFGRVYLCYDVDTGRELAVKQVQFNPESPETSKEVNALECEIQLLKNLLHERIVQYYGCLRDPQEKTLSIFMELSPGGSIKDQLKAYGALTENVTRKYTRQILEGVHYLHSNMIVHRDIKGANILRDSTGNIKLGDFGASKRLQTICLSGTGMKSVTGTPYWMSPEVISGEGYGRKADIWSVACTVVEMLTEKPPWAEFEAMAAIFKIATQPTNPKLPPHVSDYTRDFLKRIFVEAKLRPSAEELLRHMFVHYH
Experiment: TR-FRET kinase assay (mMEKK2/MBP)
Assay type: biochemical
Settings: substrate biotin MBP, 60 minutes at room temperature
Description: In one approach, MEKK2 inhibitory activity of compounds of the invention can be assessed using the time-resolved Fluorescence Resonance Energy Transfer (TR-FRET) assay detailed in Example 5. In this assay, the excitation energy of one fluorescent molecule (the donor) is transferred by a resonance mechanism to a nearby second fluorescent molecule (the acceptor), which then releases its fluorescent energy through fluorescent emission. This fluorescent energy is measured using a time-resolved fluorescence measurement protocol (LANCE high count 615/665); excitation occurred with 1,000 flashes at 325 nm, measurement was delayed by 100 μs, and data were acquired for 50 μs at 615 and 665 nm.
A TR-FRET kinase assay was used to screen potential inhibitors of MEKK2. The assay was performed as follows: Compounds to be tested were weighed and solubilized in DMSO (Sigma) to a stock concentration of 10 mM. Serial dilutions starting from 1 mM were prepared with additional DMSO. These dilutions were further diluted to 250 μM in kinase reaction buffer [20 mM Hepes pH 7.5, 5 mM MgCl2, 1 mM DTT (Dithiothreitol-Sigma), 1 mM NaVO4 (sodium vanadate-Sigma). A 25 μl aliquot of this solution was transferred to a black 96-well nonbinding surface microplate (Fisher). A stock aliquot containing […] of murine MEKK2 (mMEKK2) was diluted in the kinase reaction buffer and incubated with the compounds on the microplate for 10 minutes. A 25 μl aliquot of a 138 ng solution of biotin MBP (myelin basic protein—Upstate Biotechnology) was added to the reaction followed by 25 ul of a 25 ng solution of anti-phospho MBP antibody (Upstate Biotechnology) diluted in kinase reaction buffer. Finally an aliquot (50 μl) of a 5 uM solution of ATP (adenosine triphosphate) was added and the reaction was allowed to proceed for 60 minutes at room temperature. The reaction was stopped by the addition of 50 μL of a 12.5 ng solution of europium labeled anti-mouse IgG (Perkin Elmer) and 45 ng of Cy5 labeled streptavidin (Jackson Immunoresearch) in termination buffer (20 mM Hepes pH 7.5, 100 mM EDTA; Sigma). The assay was allowed to equilibrate for 45 minutes before placing the plate on the Victor™ plate reader. The plate was read using the 615/665 LANCE protocol.

Row | IC50 | Compound
1 | < 5 µM | COc1cccc(-c2nc(SCc3ccc(NC(=O)c4ccc(F)c(C(F)(F)F)c4)cc3)[nH]c(=O)c2C#N)c1 [Example 2rr]
2 | < 10 µM | COc1cccc(-c2nc(SCc3cccc(NC(=O)c4sccc4C)c3)[nH]c(=O)c2C#N)c1 [Example 2s]
3 | < 5 µM | COc1cccc(-c2nc(SCc3ccc(NC(=O)c4cccc(C(F)(F)F)c4)cc3)[nH]c(=O)c2C#N)c1 [Example 2ss]
4 | < 40 µM | COc1cccc(-c2nc(SCc3cccc(NC(=O)c4cnn(C)c4Cl)c3)[nH]c(=O)c2C#N)c1 [Example 2t]
5 | < 1 µM | COc1cccc(-c2nc(SCc3ccc(NC(=O)c4ccc(Cl)c(Cl)c4)cc3)[nH]c(=O)c2C#N)c1 [Example 2tt]
6 | < 20 µM | COc1cccc(-c2nc(SCc3cccc(NC(=O)c4ccc(OC)cc4OC)c3)[nH]c(=O)c2C#N)c1 [Example 2u]
7 | < 20 µM | COc1cccc(-c2nc(SCc3ccc(NC(=O)c4cc(C)nn4C(C)(C)C)cc3)[nH]c(=O)c2C#N)c1 [Example 2uu]
8 | < 20 µM | COc1cccc(-c2nc(SCc3cccc(NC(=O)c4csc(Cl)c4OC)c3)[nH]c(=O)c2C#N)c1 [Example 2v]
9 | < 20 µM | COc1cccc(-c2nc(SCc3ccc(NC(=O)Cc4ccccc4)cc3)[nH]c(=O)c2C#N)c1 [Example 2vv]
10 | < 40 µM | COc1cccc(-c2nc(SCc3cccc(NC(=O)c4cc(C)nn4C(C)(C)C)c3)[nH]c(=O)c2C#N)c1 [Example 2w]
11 | < 20 µM | COc1cccc(-c2nc(SCc3ccc(NC(=O)c4c(F)cc(F)cc4F)cc3)[nH]c(=O)c2C#N)c1 [Example 2ww]
12 | < 10 µM | COc1cccc(-c2nc(SCc3cccc(NC(=O)c4cc(Cl)nc(OC)c4)c3)[nH]c(=O)c2C#N)c1 [Example 2x]
13 | > 40 µM | COc1cccc(-c2nc(SCc3ccc(NC(=O)C4CCN(c5nccc(C(F)(F)F)n5)CC4)cc3)[nH]c(=O)c2C#N)c1 [Example 2xx]
14 | < 20 µM | COc1cccc(-c2nc(SCc3ccc(NC(=O)c4ccc(Cl)nc4)cc3)[nH]c(=O)c2C#N)c1 [Example 2yy]
15 | > 40 µM | COc1cccc(-c2nc(SCc3ccc(NC(=O)c4cccnc4Oc4ccc(Cl)cc4)cc3)[nH]c(=O)c2C#N)c1 [Example 2zz]
16 | < 1 µM | COc1cccc(-c2nc(SCc3ccc(NC(=O)Nc4cccc5nsnc45)cc3)[nH]c(=O)c2C#N)c1 [Example 3aa]
17 | < 5 µM | COc1cccc(-c2nc(SCc3cccc(NC(=O)Nc4cc(F)cc(F)c4)c3)[nH]c(=O)c2C#N)c1 [Example 3b, 1-{3-[5-Cyano-4-(3-methoxy-phenyl)-6-oxo-1,6-dihydro-pyrimidin-2-ylsulfanylmethyl]-phenyl}-3-(3,5-difluoro-phenyl)-urea]
18 | > 40 µM | COc1cccc(-c2nc(SCc3ccc(NC(=O)NC4CCNCC4)cc3)[nH]c(=O)c2C#N)c1 [Example 3bb]
19 | < 5 µM | COc1cccc(-c2nc(SCc3cccc(NC(=O)NCc4ccccc4)c3)[nH]c(=O)c2C#N)c1 [Example 3c]
20 | < 5 µM | COc1cccc(-c2nc(SCc3cccc(NC(=O)Nc4ccccc4)c3)[nH]c(=O)c2C#N)c1 [Example 3d]
21 | < 5 µM | COc1cccc(-c2nc(SCc3cccc(NC(=O)NCCc4cccs4)c3)[nH]c(=O)c2C#N)c1 [Example 3e]
22 | < 5 µM | COc1cccc(-c2nc(SCc3cccc(NC(=O)NC4CCCC4)c3)[nH]c(=O)c2C#N)c1 [Example 3f]
23 | < 10 µM | COc1cccc(-c2nc(SCc3cccc(NC(=O)NCc4ccco4)c3)[nH]c(=O)c2C#N)c1 [Example 3g]
24 | < 40 µM | COc1cccc(-c2nc(SCc3cccc(NC(=O)NCc4cc(OC)c(OC)c(OC)c4)c3)[nH]c(=O)c2C#N)c1 [Example 3i]
25 | < 10 µM | COc1cccc(-c2nc(SCc3cccc(NC(=O)Nc4ccc5c(c4)OCCO5)c3)[nH]c(=O)c2C#N)c1 [Example 3j]

Row | IC50 | Compound
26 | < 10 µM | COc1cccc(-c2nc(SCc3cccc(NC(=O)NCCc4ccc5c(c4)OCO5)c3)[nH]c(=O)c2C#N)c1 [Example 3k]
27 | < 10 µM | COc1cccc(-c2nc(SCc3ccc(NC(=O)NCc4ccccc4)cc3)[nH]c(=O)c2C#N)c1 [Example 3l]
28 | < 5 µM | COc1cccc(-c2nc(SCc3ccc(NC(=O)Nc4ccccc4)cc3)[nH]c(=O)c2C#N)c1 [Example 3m]
29 | < 20 µM | COc1cccc(-c2nc(SCc3ccc(NC(=O)Nc4cccc(C#N)c4)cc3)[nH]c(=O)c2C#N)c1 [Example 3o]
30 | < 20 µM | COc1cccc(-c2nc(SCc3ccc(NC(=O)Nc4ccc5c(c4)OCO5)cc3)[nH]c(=O)c2C#N)c1 [Example 3p]
31 | > 40 µM | COc1cccc(-c2nc(SCc3ccc(NC(=O)Nc4c(Cl)cccc4Cl)cc3)[nH]c(=O)c2C#N)c1 [Example 3q]
32 | < 5 µM | COc1cccc(-c2nc(SCc3ccc(NC(=O)Nc4cc(F)cc5c4OCOC5)cc3)[nH]c(=O)c2C#N)c1 [Example 3r]
33 | < 5 µM | COc1cccc(-c2nc(SCc3ccc(NC(=O)Nc4ccc(Cl)c(C(F)(F)F)c4)cc3)[nH]c(=O)c2C#N)c1 [Example 3s]
34 | < 5 µM | COc1cccc(-c2nc(SCc3ccc(NC(=O)Nc4cc(C(F)(F)F)ccc4Cl)cc3)[nH]c(=O)c2C#N)c1 [Example 3t]
35 | < 10 µM | COc1cccc(-c2nc(SCc3ccc(NC(=O)Nc4cc([N+](=O)[O-])ccc4F)cc3)[nH]c(=O)c2C#N)c1 [Example 3u]
36 | < 1 µM | COc1cccc(-c2nc(SCc3ccc(NC(=O)Nc4cccc(Oc5ccccc5)c4)cc3)[nH]c(=O)c2C#N)c1 [Example 3v]
37 | < 5 µM | COc1cccc(-c2nc(SCc3ccc(NC(=O)NCCc4cccs4)cc3)[nH]c(=O)c2C#N)c1 [Example 3w]
38 | < 1 µM | COc1cccc(-c2nc(SCc3ccc(NC(=O)Nc4cc(C(F)(F)F)cc(C(F)(F)F)c4)cc3)[nH]c(=O)c2C#N)c1 [Example 3x]
39 | < 1 µM | COc1cccc(-c2nc(SCc3ccc(NC(=O)NC4CCCCC4)cc3)[nH]c(=O)c2C#N)c1 [Example 3y]
40 | < 1 µM | COc1cccc(-c2nc(SCc3ccc(NC(=O)NC(c4ccccc4)c4ccccc4)cc3)[nH]c(=O)c2C#N)c1 [Example 3z]
41 | > 40 µM | COc1cccc(-c2nc(SCc3cccc(NCc4ccc(OCCN(C)c5ccncc5)cc4)c3)[nH]c(=O)c2C#N)c1 [Example 4b]
42 | > 40 µM | N#Cc1c(-c2cccc(Cn3cncn3)c2)nc(SCc2cccc(NC(=O)c3ccc(Cl)c(Cl)c3)c2)[nH]c1=O [Example 4bb]
43 | > 40 µM | COc1cccc(-c2nc(SCc3cccc(NCC4CCN(c5ccncc5)CC4)c3)[nH]c(=O)c2C#N)c1 [Example 4c]
44 | > 40 µM | N#Cc1c(-c2cccc(Cn3ccnc3)c2)nc(SCc2cccc(NC(=O)c3ccc(Cl)c(Cl)c3)c2)[nH]c1=O [Example 4cc]
45 | > 40 µM | CCc1nc(C)c(CNc2cccc(CSc3nc(-c4cccc(OC)c4)c(C#N)c(=O)[nH]3)c2)[nH]1 [Example 4e]
46 | < 5 µM | COc1cccc(-c2nc(SCc3cc(NCc4ccc(Cl)c(Cl)c4)ccc3O)[nH]c(=O)c2C#N)c1 [Example 4f]
47 | < 5 µM | COc1cccc(-c2nc(SCc3cc(NCc4ccc(Cl)c(Cl)c4)cc([N+](=O)[O-])c3)[nH]c(=O)c2C#N)c1 [Example 4g]
48 | > 40 µM | COc1cccc(-c2nc(SCCCCCn3cnc4c(NCc5ccccc5)ncnc43)[nH]c(=O)c2C#N)c1 [Example 4h]
49 | > 40 µM | COc1cccc(-c2nc(SCCCn3cnc4c(NCc5ccccc5)ncnc43)[nH]c(=O)c2C#N)c1 [Example 4i]
50 | > 40 µM | N#Cc1c(-c2cccc(C(=O)O)c2)nc(SCCCn2cnc3c(NCc4ccccc4)ncnc32)[nH]c1=O [Example 4j]
